Reference: US20230210819A1, “USE OF BENZISOSELAZOLE DERIVATIVE FOR ANTI-CORONAVIRUS AND CONTROL OF INTERSTITIAL LUNG DISEASE (ILD) RELATED TO CORONAVIRUS” (SHANGHAI YUANXI MEDICINE CORP., priority 2020, published 2023)

Experiments:
Type in all cases: in vivo, C57 mice
[1] = tested on: bleomycin-induced mouse lung disease model; assay: Lung and spleen coefficients, 24-h modeling
Experimental: (§1) Animals of 24-h modeling were randomly divided into 5 groups according to the table below, 3 animals per control group and 5 animals per test group.
(§2) Drug administration began 24 h or 7 d after modeling. […] The day of the first administration was counted as D1, the next day as D2, and so forth. The normal groups and Model groups were given 200 µL of normal saline daily by gavage administration.
Method: after being euthanized, the animals were dissected, and the heart, liver, spleen, lung and kidney were weighed.
(§3) In this experiment, 105 C57 mice were randomly selected and subjected to organ drip administration of a single dose of bleomycin at 2.5 mg/kg for 24 h or 7 d for induction. After 7 days of induction, 3 model mice were randomly selected and dissected to determine whether the modeling was successful. After modeling, the survival of the mice was recorded. The living states of the mice were observed and their body weight was measured at a fixed time.
(§4) A normal control group comprised 3 mice.

[2] = tested on: bleomycin-induced mouse lung disease model; assay: Blood gas analysis, 7-d modeling; details: for BEect / HCO3^- / PCO2: arterial blood after administration ended
Experimental: (§5) Animals of 7-d modeling were randomly divided into 7 groups according to the table below, 6 animals per control group and 12 animals per test group.
as §2
(§6) 1. After being anaesthetized, a mouse was fixed to a board in a supine position.
(§7) 2. After the skin was disinfected with alcohol, a midline cut of about 1.5 cm was made downward in the skin of the neck. The connective tissue between the sternohyoid muscle and the stemothyroid muscle was separated along the anterior border of the sternomastoid muscle with a tissue forceps. The pulsating common carotid artery could be seen on the deep right side of the trachea. A common carotid artery of about 1.5 cm in length was separated. The distal end was ligated with silk thread, and the proximal end was clipped with an artery clip and threaded with a silk thread for later use. The mouse board was placed under a dissecting microscope, and a V-shaped centripetal incision was gently made in a site near the distal end of the artery with a microscopy scissor. A PE microcatheter was inserted into the artery and fixed by making a knot with silk thread. The artery clip was removed, and 0.1-0.2 mL of blood was collected with a 1 mL syringe. The proximal end was clipped with an artery clip, and the syringe was removed. The blood was immediately analyzed on an AbboTTi-STAT blood gas microanalyzer.
(§8) In a blood gas analysis, the H^+ concentration in the blood and gases (mainly CO2 and O2) dissolved in the blood can be determined to directly reflect the function of pulmonary ventilation and the acid-base balance state. They are used to determine in the organism whether the acid-base balance is upset, whether anoxia occurred, the level of anoxia, and so forth.

[3] = Body weight, bleomycin-induced mice, 24-h modeling; details: BS 90 mg/kg gavage daily
Experimental: as §1, §2
All the animals were observed once daily during the experiment for death or dying, feces, ingestion, mental state and behavior and activity. Abnormalities were recorded in time. All the animals were weighed once before grouping and once before each dose.
as §3, §4

[4] = tested on: cytokines in bronchoalveolar lavage fluid; assay: Inflammatory factor assay of bronchoalveolar lavage fluid by ELISA; details: for Percent reduction in IFN-γ in bronchoalveolar lavage fluid with respect to the Model group / Percent reduction in PPAR-y in bronchoalveolar lavage fluid with respect to the Model group: negative = increase; for IL-1β in bronchoalveolar lavage fluid / IL-2 in bronchoalveolar lavage fluid / IL-6 in bronchoalveolar lavage fluid / TNF-α in bronchoalveolar lavage fluid: second half of table, head taken from the 24th table
Experimental: as §5, §2
After the mouse was fixed, its trachea and chest cavity were exposed, and the trachea and the esophagus were bluntly separated with an ophthalmic curved forceps. Two sutures were made between the trachea and the esophagus. An intravenous trocar was inserted into the trachea and ligated at the site where it entered the trachea and at its distal end. A 1 mL syringe was connected to draw in 1 mL of pre-cooled PBS and infuse it into the lung tissue. Significant filling in the lung could be seen with the naked eye. The infusion was stopped for 10 s and withdrawal was performed. The infusion/withdrawal cycle was repeated 3 times. The withdrawn BALF was transferred to a clean EP tube and centrifuged at 4° C., and the supernatant was collected and preserved at -80° C. The bronchoalveolar lavage fluid was assayed for inflammatory factors by ELISA.

[5] = tested on: bleomycin-induced mouse lung disease model; assay: Blood gas analysis, 24-h modeling
Experimental: as §1, §2, §6, §7, §8

[6] = BS 90 mg/kg gavage daily, arterial blood after administration ended

In the case of `O=c1c2ccccc2[se]n1CCCCn1[se]c2ccccc2c1=O` [BS, 1,4-[bis(1,2-benzisoselenazol-3(2H)-one)]butane], the Lung coefficient ([1]; BS 90 mg/kg gavage daily) is reported as 0.89±0.04%, the Spleen coefficient ([1]; BS 90 mg/kg gavage daily) is reported as 0.37±0.02% and the “Effect on spleen coefficient (in words)” value ([1]; BS 90 mg/kg, effect better than that of Dex) is reported as “significantly decrease the spleen coefficient”. For the same compound, the “Effect on blood gas analysis (in words)” value ([2]; BS 90 mg/kg and 180 mg/kg, better than Dex (1-1.5 mg/kg) in general) was “significant improvements to the function of pulmonary ventilation and the acid-base balance states”, the BEect ([2]; BSH: BS 180 mg/kg gavage daily) was -8.00 ± 1.10 mmol/L and the “HCO3^-” value ([2]; BSH: BS 180 mg/kg gavage daily) was 27.82 ± 0.91 mmol/L. For the same compound, the PCO2 ([2]; BSH: BS 180 mg/kg gavage daily) was 32.82±2.02 mmHg, the BEect ([2]; BSL: BS 36 mg/kg gavage daily) was -15.67 ± 4.13 mmol/L and the “HCO3^-” value ([2]; BSL: BS 36 mg/kg gavage daily) was 22.30 ± 1.51 mmol/L. The PCO2 ([2]; BSL: BS 36 mg/kg gavage daily) was 27.45±1.35 mmHg, the BEect ([2]; BSM: BS 90 mg/kg gavage daily) was -9.83 ± 0.75 mmol/L and the “HCO3^-” value ([2]; BSM: BS 90 mg/kg gavage daily) was 30.57 ± 1.42 mmol/L. It also gave a PCO2 ([2]; BSM: BS 90 mg/kg gavage daily) of 31.62±1.34 mmHg, a Body weight ([3]; D1) of 20.34 ± 1.01 g and a Body weight ([3]; D7) of 19.50 ± 1.35 g. It also gave a Body weight ([3]; D14) of 18.84 ± 1.70 g, a Body weight ([3]; D21) of 18.52 ± 1.75 g and a Body weight ([3]; D28) of 18.30 ± 1.60 g. For the same compound, the Body weight ([3]; D35) was 18.02 ± 1.75 g, the “Body weight decreased by” value ([3]; day 1 to day 35) was 13.58% and the “IFN-γ in bronchoalveolar lavage fluid” value ([4]; BSH: BS 180 mg/kg gavage daily) was 55.70 ± 4.27 pg/mL. For the same compound, the “NF-κB in bronchoalveolar lavage fluid” value ([4]; BSH: BS 180 mg/kg gavage daily) was 759.34 ± 104.53 pg/mL, the “PPAR-γ in bronchoalveolar lavage fluid” value ([4]; BSH: BS 180 mg/kg gavage daily) was 237.75 ± 24.92 pg/mL and the “Percent reduction in IL-1β in bronchoalveolar lavage fluid with respect to the Model group” value (“Percent reduction in IL-1β” below) ([4]; BSH: BS 180 mg/kg gavage daily) was 61.70%. For the same compound, the “Percent reduction in IL-2 in bronchoalveolar lavage fluid with respect to the Model group” value ([4]; BSH: BS 180 mg/kg gavage daily) was 10.87%, the “Percent reduction in IL-6 in bronchoalveolar lavage fluid with respect to the Model group” value ([4]; BSH: BS 180 mg/kg gavage daily) was 67.10% and the “Percent reduction in NF-κB in bronchoalveolar lavage fluid with respect to the Model group” value (from here on “Percent reduction in NF-κB”) ([4]; BSH: BS 180 mg/kg gavage daily) was 17.22%. For the same compound, the “Percent reduction in TGF-β in bronchoalveolar lavage fluid with respect to the Model group” value (shortened to “Percent reduction in TGF-β”) ([4]; BSH: BS 180 mg/kg gavage daily) was 14.53%, the “Percent reduction in TNF-α in bronchoalveolar lavage fluid with respect to the Model group” value (“Percent reduction in TNF-α” below) ([4]; BSH: BS 180 mg/kg gavage daily) was 22.95% and the “TGF-β in bronchoalveolar lavage fluid” value ([4]; BSH: BS 180 mg/kg gavage daily) was 161.82 ± 20.96 pg/mL. The “Percent reduction in IFN-γ in bronchoalveolar lavage fluid with respect to the Model group” value (from here on “Percent reduction in IFN-γ”) ([4]; BSH: BS 180 mg/kg gavage daily) was -67.81%, the “Percent reduction in PPAR-y in bronchoalveolar lavage fluid with respect to the Model group” value (shortened to “Percent reduction in PPAR-y”) ([4]; BSH: BS 180 mg/kg gavage daily) was -9.52% and the “IL-1β in bronchoalveolar lavage fluid” value ([4]; BSH: BS 180 mg/kg gavage daily) was 4.78 ± 0.69 pg/mL. For the same compound, the “IL-2 in bronchoalveolar lavage fluid” value ([4]; BSH: BS 180 mg/kg gavage daily) was 40.37 ± 5.25 pg/mL, the “IL-6 in bronchoalveolar lavage fluid” value ([4]; BSH: BS 180 mg/kg gavage daily) was 9.47 ± 1.96 pg/mL and the “TNF-α in bronchoalveolar lavage fluid” value ([4]; BSH: BS 180 mg/kg gavage daily) was 43.24 ± 7.14 pg/mL. For the same compound, the “Inhibitory effect on inflammatory cells and proinflammatory factors (NF-κB, TNF-α, IL-1β, IL-2, IL-6) compared to Dex, in words” value ([4]; BSH: BS 180 mg/kg, used alone) was “greater inhibitory effect”, the “IFN-γ in bronchoalveolar lavage fluid” value ([4]; BSL: BS 36 mg/kg gavage daily) was 38.74 ± 4.74 pg/mL and the “NF-κB in bronchoalveolar lavage fluid” value ([4]; BSL: BS 36 mg/kg gavage daily) was 867.20 ± 174.12 pg/mL. The “PPAR-γ in bronchoalveolar lavage fluid” value ([4]; BSL: BS 36 mg/kg gavage daily) was 38.74 ± 4.74 pg/mL, the “Percent reduction in IL-1β” value ([4]; BSL: BS 36 mg/kg gavage daily) was 17.88% and the “Percent reduction in IL-2 in bronchoalveolar lavage fluid with respect to the Model group” value ([4]; BSL: BS 36 mg/kg gavage daily) was 4.03%. The “Percent reduction in IL-6 in bronchoalveolar lavage fluid with respect to the Model group” value ([4]; BSL: BS 36 mg/kg gavage daily) was 49.92%, the “Percent reduction in NF-κB” value ([4]; BSL: BS 36 mg/kg gavage daily) was 5.46% and the “Percent reduction in TGF-β” value ([4]; BSL: BS 36 mg/kg gavage daily) was 0.42%. For the same compound, the “Percent reduction in TNF-α” value ([4]; BSL: BS 36 mg/kg gavage daily) was 7.38%, the “TGF-β in bronchoalveolar lavage fluid” value ([4]; BSL: BS 36 mg/kg gavage daily) was 188.54 ± 24.55 pg/mL and the “Percent reduction in IFN-γ” value ([4]; BSL: BS 36 mg/kg gavage daily) was -16.73%. The “Percent reduction in PPAR-y” value ([4]; BSL: BS 36 mg/kg gavage daily) was -5.79%, the “IL-1β in bronchoalveolar lavage fluid” value ([4]; BSL: BS 36 mg/kg gavage daily) was 10.26 ± 1.29 pg/mL and the “IL-2 in bronchoalveolar lavage fluid” value ([4]; BSL: BS 36 mg/kg gavage daily) was 43.46 ± 7.51 pg/mL. For the same compound, the “IL-6 in bronchoalveolar lavage fluid” value ([4]; BSL: BS 36 mg/kg gavage daily) was 14.41 ± 1.33 pg/mL, the “TNF-α in bronchoalveolar lavage fluid” value ([4]; BSL: BS 36 mg/kg gavage daily) was 51.98 ± 4.37 pg/mL and the “IFN-γ in bronchoalveolar lavage fluid” value ([4]; BSM: BS 90 mg/kg gavage daily) was 53.31 ± 5.29 pg/mL. The “NF-κB in bronchoalveolar lavage fluid” value ([4]; BSM: BS 90 mg/kg gavage daily) was 824.16 ± 155.14 pg/mL, the “Percent reduction in IL-1β” value ([4]; BSM: BS 90 mg/kg gavage daily) was 47.93% and the “Percent reduction in IL-2 in bronchoalveolar lavage fluid with respect to the Model group” value ([4]; BSM: BS 90 mg/kg gavage daily) was 9.81%. The “Percent reduction in IL-6 in bronchoalveolar lavage fluid with respect to the Model group” value ([4]; BSM: BS 90 mg/kg gavage daily) was 54.37%, the “Percent reduction in NF-κB” value ([4]; BSM: BS 90 mg/kg gavage daily) was 10.15% and the “Percent reduction in TGF-β” value ([4]; BSM: BS 90 mg/kg gavage daily) was 2.87%. The “Percent reduction in TNF-α” value ([4]; BSM: BS 90 mg/kg gavage daily) was 11.68%, the “TGF-β in bronchoalveolar lavage fluid” value ([4]; BSM: BS 90 mg/kg gavage daily) was 178.54 ± 14.64 pg/mL and the “Percent reduction in IFN-γ” value ([4]; BSM: BS 90 mg/kg gavage daily) was -60.63%. For the same compound, the “Percent reduction in PPAR-y” value ([4]; BSM: BS 90 mg/kg gavage daily) was -6.09%, the “IL-1β in bronchoalveolar lavage fluid” value ([4]; BSM: BS 90 mg/kg gavage daily) was 6.50 ± 1.38 pg/mL and the “IL-2 in bronchoalveolar lavage fluid” value ([4]; BSM: BS 90 mg/kg gavage daily) was 40.84 ± 3.88 pg/mL. The “IL-6 in bronchoalveolar lavage fluid” value ([4]; BSM: BS 90 mg/kg gavage daily) was 13.13 ± 1.03 pg/mL, the “TNF-α in bronchoalveolar lavage fluid” value ([4]; BSM: BS 90 mg/kg gavage daily) was 49.57 ± 5.97 pg/mL and the BEect [5, 6] was -9.40 ± 1.14 mmol/L. For the same compound, the “HCO3^-” value [5, 6] was 30.00 ± 1.20 mmol/L, the PCO2 [5, 6] was 30.84±1.21 mmHg and the “Effect on blood gas analysis (in words)” value ([5]; BS 90 mg/kg, better than Dex (1-1.5 mg/kg) in general) was “significant improvements to the function of pulmonary ventilation and the acid-base balance states”.
